Source: ChEMBL document CHEMBL1201862, “PubChem BioAssay data set” (2004)
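Cultured in 96-well plates, cells were exposed to test compound for 48 hours across five concentrations. Here, GI50 denotes the concentration required for 50% inhibition of growth.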 Calls of active or inactive are those of the source. Cut-off read from the data, not from the text of the source: active = GI50 up to about 1.1 µM and inactive = higher.

How the values were obtained:
Test in all cases: NCI anticancer screen, dose series, 48 h
[1] = tested on: A498
[2] = tested on: CAKI-1
[3] = tested on: HCT-116
[4] = tested on: HL-60
[5] = tested on: HT-29
[6] = tested on: M14
[7] = tested on: Malme-3M
[8] = tested on: OVCAR-5
[9] = tested on: RPMI-8226
[10] = tested on: SK-MEL-28
[11] = tested on: SK-MEL-5
[12] = tested on: SK-OV-3
[13] = tested on: SN12C
[14] = tested on: SNB-75
[15] = tested on: SR
[16] = tested on: SW-620
[17] = tested on: UACC-257
[18] = tested on: UACC-62

Measured: GI50

CC1(O)C=CC(=O)C=C1
inactive: [1] 37.6 µM | [2] 30.8 µM | [3] 60.1 µM | [4] 16.4 µM | [5] 38.4 µM | [6] 20.1 µM | [7] 20.3 µM | [8] 98.2 µM | [9] 30.1 µM | [10] 18.8 µM | [11] > 55 µM | [12] > 100 µM | [13] 52.7 µM | [14] > 56.1 µM | [15] 16.2 µM | [16] 59.2 µM | [17] 17.7 µM | [18] 18.5 µM

N#C/C(=C/c1ccco1)C(=O)c1ccccc1
inactive: [1] > 100 µM | [2] > 100 µM | [3] > 100 µM | [4] > 100 µM | [5] > 100 µM | [6] > 100 µM | [7] > 100 µM | [8] > 100 µM | [9] > 100 µM | [10] > 100 µM | [11] > 100 µM | [12] > 100 µM | [13] > 100 µM | [14] > 100 µM | [15] > 100 µM | [16] > 100 µM | [17] > 100 µM | [18] > 100 µM

COC1O[C@H]2CCN(C(=O)OCc3ccccc3)[C@H]2[C@H]1OCc1ccccc1 (some centres not stated)
inactive: [1] > 100 µM | [2] 40.3 µM | [3] 46.6 µM | [4] 28.4 µM | [5] 40.9 µM | [6] 46.3 µM | [7] 45.6 µM | [8] > 100 µM | [9] 41 µM | [10] 41.2 µM | [11] 24.1 µM | [12] 23.6 µM | [13] > 100 µM | [14] 41.9 µM | [15] 30.3 µM | [16] 50.2 µM | [17] 43.8 µM | [18] 21.5 µM

COC(=O)C1=C(O)c2cc3c(cc2[C@H](c2cc(OC)c(OC)c(OC)c2)C1C(=O)OC)OCO3 (some centres not stated)
inactive: [1] 76 µM | [2] 25.2 µM | [3] 34.7 µM | [4] > 100 µM | [5] 95.5 µM | [6] 89.5 µM | [7] 28.9 µM | [8] > 100 µM | [9] > 100 µM | [10] 52.8 µM | [11] 32.8 µM | [12] 44.1 µM | [13] 25.5 µM | [14] 22.8 µM | [15] 86.5 µM | [16] 80.2 µM | [17] 47.3 µM | [18] 30.1 µM
